From US11884647B2, “Compounds and methods for targeting pathogenic blood vessels” (THE REGENTS OF THE UNIVERSITY OF CALIFORNIA, priority 2019, dated 2024)

What was measured:
[1] = test system: tumor endothelial cells (CT26.CL25 colon cancer tumor); assay: Colon CT26 ex vivo model of tumor angiogenesis; type: cell-based; settings: Mus musculus, CT26, 48 h, read-out: Cell death
Experimental: This example describes a procedure to prepare a primary tumor angiogenesis model for assessing the efficacy of anti-cancer candidate agents.
1. The day before the experiment, spray all necessary tools with 70% ethanol and sterilize them under UV light overnight, including blade, dissecting and micro-dissecting scissors and […]. Place 24-well dishes at 4° C. to pre-chill plates and thaw Matrigel 24 hours before tumor dissection.
2. Spray 70% ethanol on working bench. Prepare two sterile petri dishes with 10 mL sterile PBS. Steps 3 and 4 are for mouse tumor models. For fresh human tumor, directly go to step 5.
3. Euthanize the tumor-bearing mice. Spray 70% ethanol on the mouse and remove the tumor using sterilized dissecting tools (avoid the fur). Rinse the tumor in petri dish with sterile PBS to remove ethanol and fur. Transfer the tumor to a new petri dish with PBS for dissection. Place the dish on ice.
4. Using pre-chilled sterile pipet tips to seed regular Matrigel in 24 well plates on ice. Matrigel (30 μL) is dropped in the middle of each well without touching the edge of the well (avoid introducing bubbles if possible).
5. Cut the tumor in halves using the sterile blade. Identify and isolate healthy tumor tissue that is not necrotic and is within the tumor capsule. Cut the healthy tumor tissue into small pieces. For instance, a suitable size for the tumor tissue is 0.5 mm (H)×0.5 mm (L)×0.3 mm (D) with a total volume of 0.075 mm^3.
6. Gently transfer and embed each tumor piece in the Matrigel drop in the 24-well plate. Place the embedded piece in the bottom and middle of each Matrigel drop. Keep the plate on ice all the time.
7. After seeding the tumor pieces, plates are incubated in a 37° C. cell culture incubator without medium for 10 minutes in order for the Matrigel to solidify.
8. Endothelial Growth Medium (0.5 mL) is added to each well and incubated at 37° C. with 5% CO2. Wait until the new endothelial cells have grown out of the tumor or are larger than 3 mm in diameter until treatment. This usually takes 4 days for the LL2 Lewis lung cancer model and 7 days for the CT26 colon cancer model. For human tumor models, the growth time is typically 2-3 weeks, depending on the tumor type. Media is changed every 4 days during prolonged culture. Typically, when the tumor tissue grows to 2 mm in diameter, it is good for drug testing. A size of about 3 mm in diameter can make visualization easier.
9. When the assay is ready to be analyzed for cell death (e.g., 48 hours after drug addition), prepare the dye mixture by mixing 6 μL of green dye to stain live cells (5 mg/mL Fluorescein diacetate or FDA in DMSO) with 30 μL of red dye (2.5 mg/mL Propidium iodide or PI in PBS) to stain dead cells in an Eppendorf tube. The FDA dye needs to be stored frozen in a −20° C. freezer because it has a labile ester bond.
10. Add 1 μL of the dye mixture to each well of the 24-well dish. It is usually performed one 24-well dish at a time given the amount of time needed to take pictures (the green dye is not as stable in the cells in the long term).
11. Gently rock the dish a few times to mix the dye with the media in the wells and incubate the dish at 37° C. for 10 min (too long incubation can make the green signal too intense).
12. Wash each well with 0.5 mL of sterile PBS and then add 0.5 mL of phenol red free SFM to each well. Alternatively 0.5 mL of regular Endothelial Cell Growth Media can be added to each well if this well needs to be continuously maintained after the experiment.
13. Look through all wells on an inverted microscope using the 2× objective lens to observe morphological changes.
14. Taking pictures in the red and green channels would allow not only the recording of the result but also more accurate quantitation of the result. To take pictures for all the wells, first pick a well that has robust red and green signals. […]

[2] = test system: tumor endothelial cells (LL/2 lung cancer tumor); assay: Lung LL2 ex vivo model of tumor angiogenesis; type: cell-based, mouse
Method in brief: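 Read-out is live/dead fluorescence imaging (fluorescein diacetate green, propidium iodide red, 10 min at 37° C) at 2×, taken e.g. 48 h after drug addition. Fragments of mouse LL2 tumor are cultured in Matrigel with endothelial growth medium, usually 4 days, until new endothelial cells grow out, then treated.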

[3] = Mus musculus, Endothelial cell, 48 h, read-out: Cell death
[4] = Lung LL2 ex vivo, Conc. 20 μm, (24 hrs)

SMILES	cytotoxicity at 40 µM [1] [%]	also measured
CCc1ccc(S(=O)(=O)c2cnc3ccc(OC(F)(F)F)cc3c2N2CCC(O)(c3ccc4c(c3)OCO4)CC2)cc1 [compound 147, 4-(benzo[d][1,3]dioxol-5-yl)-1-(3-((4-ethylphenyl)sulfonyl)-6-(trifluoromethoxy)quinolin-4-yl)piperidin-4-ol]	0	
CCCCOc1ccc(S(=O)(=O)c2cnc3ccc(SC)cc3c2N2CCCN(CCN3CCCC3)CC2)cc1 [compound 207, 3-((4-butoxyphenyl)sulfonyl)-6-(methylthio)-4-(4-(2-(pyrrolidin-1-yl)ethyl)-1,4-diazepan-1-yl)quinoline]	100	
CCOC(=O)c1ccc2ncc(S(=O)(=O)c3ccc(CC)cc3)c(N3CCC(O)(c4ccc(CC)cc4)CC3)c2c1 [compound 128, ethyl 4-(4-(4-ethylphenyl)-4-hydroxypiperidin-1-yl)-3-((4-ethylphenyl)sulfonyl)quinoline-6-carboxylate]	10	
CCOC(=O)c1ccc2ncc(S(=O)(=O)c3ccc(CC)cc3)c(N3CCCC(O)C3)c2c1 (stereo not shown) [compound 135, ethyl 3-((4-ethylphenyl)sulfonyl)-4-(3-hydroxypiperidin-1-yl)quinoline-6-carboxylate]	30	
CCOC(=O)c1ccc2ncc(S(=O)(=O)c3ccc(CC)cc3)c(N3CCC(OCCN(CC)CC)CC3)c2c1 [compound 132, ethyl 4-(4-(2-(diethylamino)ethoxy)piperidin-1-yl)-3-((4-ethylphenyl)sulfonyl)quinoline-6-carboxylate]	40	
CCOC(=O)c1ccc2ncc(S(=O)(=O)c3ccc(OC)cc3)c(N3CCCN(C)CC3)c2c1 [compound 144, ethyl 3-((4-methoxyphenyl)sulfonyl)-4-(4-methyl-1,4-diazepan-1-yl)quinoline-6-carboxylate]	30	
CCCCN(CCCC)c1c(S(=O)(=O)c2ccc(OC)c(OC)c2)cnc2ccc(SC)cc12 [compound 124, N,N-dibutyl-3-((3,4-dimethoxyphenyl)sulfonyl)-6-(methylthio)quinolin-4-amine]	20	
CCc1ccc(C2(O)CCN(c3c(S(=O)(=O)c4ccc(OC)cc4)cnc4ccc(OC(F)(F)F)cc34)CC2)cc1 [compound 129, 4-(4-ethylphenyl)-1-(3-((4-methoxyphenyl)sulfonyl)-6-(trifluoromethoxy)quinolin-4-yl)piperidin-4-ol]	0	
CCOC(=O)c1ccc2ncc(S(=O)(=O)c3ccc(OC)cc3)c(N3CCCC(O)C3)c2c1 (stereo not shown) [compound 137, ethyl 4-(3-hydroxypiperidin-1-yl)-3-((4-methoxyphenyl)sulfonyl)quinoline-6-carboxylate]	40	
CCOC(=O)c1ccc2ncc(S(=O)(=O)c3ccc(CC)cc3)c(N3CCCN(CCN(CC)CC)CC3)c2c1 [compound 131, ethyl 4-(4-(2-(diethylamino)ethyl)-1,4-diazepan-1-yl)-3-((4-ethylphenyl)sulfonyl)quinoline-6-carboxylate]	50	
CCc1ccc(S(=O)(=O)c2cnc3ccc(OC(F)(F)F)cc3c2N2CCC(O)(c3cccc(OC)c3)CC2)cc1 [compound 146, 1-(3-((4-ethylphenyl)sulfonyl)-6-(trifluoromethoxy)quinolin-4-yl)-4-(3-methoxyphenyl)piperidin-4-ol]	0	
CCOC(=O)c1ccc2ncc(S(=O)(=O)c3ccc(CC)cc3)c(N3CCC(O)(c4cccc(OC)c4)CC3)c2c1 [compound 149, ethyl 3-((4-ethylphenyl)sulfonyl)-4-(4-hydroxy-4-(3-methoxyphenyl)piperidin-1-yl)quinoline-6-carboxylate]	20	
CCOC(=O)c1ccc2ncc(S(=O)(=O)c3ccc(OC)cc3)c(N3CCC(N4CCC(O)CC4)CC3)c2c1 [compound 138, ethyl 4-(4-hydroxy-[1,4′-bipiperidin]-1′-yl)-3-((4-methoxyphenyl)sulfonyl)quinoline-6-carboxylate]	20	
CCc1ccc(S(=O)(=O)c2cnc3ccc(OC(F)(F)F)cc3c2N2CCC(O)(c3ccc(OC)cc3)CC2)cc1 [compound 145, 1-(3-((4-ethylphenyl)sulfonyl)-6-(trifluoromethoxy)quinolin-4-yl)-4-(4-methoxyphenyl)piperidin-4-ol]	30	
CCOC(=O)c1ccc2ncc(S(=O)(=O)c3ccc(OC)cc3)c(N3CCCN(CCN(CC)CC)CC3)c2c1 [compound 139, ethyl 4-(4-(2-(diethylamino)ethyl)-1,4-diazepan-1-yl)-3-((4-methoxyphenyl)sulfonyl)quinoline-6-carboxylate]	40	
COc1ccc(S(=O)(=O)c2cnc3ccc(OC(F)(F)F)cc3c2N2CCC(O)(c3cccc(OC)c3)CC2)cc1 [compound 150, 4-(3-methoxyphenyl)-1-(3-((4-methoxyphenyl)sulfonyl)-6-(trifluoromethoxy)quinolin-4-yl)piperidin-4-ol]	10	
CCOC(=O)c1ccc2ncc(S(=O)(=O)c3ccc(CC)cc3)c(N3CCC(N4CCC(O)CC4)CC3)c2c1 [compound 130, ethyl 3-((4-ethylphenyl)sulfonyl)-4-(4-hydroxy-[1,4′-bipiperidin]-1′-yl)quinoline-6-carboxylate]	40	
CCOC(=O)c1ccc2ncc(S(=O)(=O)c3ccc(CC)cc3)c(N3CCC(O)(c4ccc(OC)cc4)CC3)c2c1 [compound 148, ethyl 3-((4-ethylphenyl)sulfonyl)-4-(4-hydroxy-4-(4-methoxyphenyl)piperidin-1-yl)quinoline-6-carboxylate]	0	
CN1CCCN(c2c(S(=O)(=O)c3ccc([N+](=O)[O-])cc3)cnc3ccc(OC(F)(F)F)cc23)CC1 [compound 60, 4-(4-methyl-1,4-diazepan-1-yl)-3-((4-nitrophenyl)sulfonyl)-6-(trifluoromethoxy)quinoline]	5	
CCCCOc1ccc(S(=O)(=O)c2cnc3ccc([S+](C)[O-])cc3c2N2CCC(N3CCC(O)CC3)CC2)cc1 (stereo not shown) [compound 168, 1′-(3-((4-butoxyphenyl)sulfonyl)-6-(methylsulfinyl)quinolin-4-yl)-[1,4′-bipiperidin]-4-ol]		cytotoxicity at 20 µM [2, 3]: 10%
COc1ccc(S(=O)(=O)c2cnc3ccc(S(C)(=O)=O)cc3c2NN2CCN(C)CC2)cc1 [compound 228, 3-((4-methoxyphenyl)sulfonyl)-N-(4-methylpiperazin-1-yl)-6-(methylsulfonyl)quinolin-4-amine]		cytotoxicity at 40 µM [2, 3]: 5%
CCCCCCCCCCOc1ccc(S(=O)(=O)c2cnc3ccc([S+](C)[O-])cc3c2N2CCC(N3CCC(N4CCN(CCO)CC4)CC3)CC2)cc1 (stereo not shown) [compound 292, 2-(4-(1′-(3-((4-(decyloxy)phenyl)sulfonyl)-6-(methylsulfinyl)quinolin-4-yl)-[1,4′-bipiperidin]-4-yl)piperazin-1-yl)ethan-1-ol]		Cell death (24 hrs) [2, 4]: 10%; Morphology observations (24 hrs) [2, 4]: * (50% or less of cells vesicularize in cell shape)
CCCCCCCCCCCCCCOc1ccc(S(=O)(=O)c2cnc3ccc([S+](C)[O-])cc3c2N2CCC(N3CCC(N4CCCCC4)CC3)CC2)cc1F (stereo not shown) [compound 366, 4-([1,4′:1′,4″-terpiperidin]-1″-yl)-3-((3-fluoro-4-(tetradecyloxy)phenyl)sulfonyl)-6-(methylsulfinyl)quinoline]		cytotoxicity at 20 µM [2, 3]: 10%
O=S(=O)(c1ccc(OC(F)(F)F)cc1)c1cnc2ccc(OC(F)(F)F)cc2c1N1CCC(N2CCCCC2)CC1 [compound 120, 4-([1,4′-bipiperidin]-1′-yl)-6-(trifluoromethoxy)-3-((4-(trifluoromethoxy)phenyl)sulfonyl)quinoline]		Cell death ([2]; Lung LL2 ex vivo, Conc. 20 μm, drug treatment two days): 5%
